Measured values as given in patent publication US20060014726A1, “Derivatives of cyclic1, 3- propanediol phosphate and their action in differentiation therapy” (priority 2002, published 2006).
Read-outs that look alike come from different tables or passages of the source.

Legend:
ER-α mRNA in MCF-7 cells = assay: Quantitative RT-PCR of ER-α mRNA in MCF-7 cells; assay type: cell-based, human
Procedure: It should however be understood that the augmented expression of ER-α and PR presented in FIGS. 1-3 could have in principle originated from increase in either transcription or translation associated with the respective steroid receptor genes. Therefore the effects of long term incubation with 1,3cPP on the respective ER-α and PR mRNA levels were examined. Quantitative RT-PCR was carried out with a Light Cycler as described. […] In contrast, only 20 μM 1,3-cPP were required to induce 7-fold increase in the ER-α mRNA in T47D clone 8 cells (FIG. 4D). The analogous data for PR are depicted for MCF-7 cells in FIGS. 5A-B where at 20 μM, there was a 3 fold increase in the normalized PR mRNA expression on the 8th day. This increase receded to about 1.5-fold by the 11th day.
MCF-7 and T47D cells were cultured and treated as described above. Total cellular RNA was extracted with TRI reagent according to the manufacturer's instructions (Molecular Research Center, Inc. Cincinnati, Ohio). Reverse transcription (RT) was performed in a total reaction mixture of 20 μl with 1-5 μg RNA by first heating to 65° C. for 5 min in the presence of 25 μg/ml Oligo (dT)12-18, and 0.5 mM deoxynucleotide triphosphates (dNTP). The RT reaction mixture was then quickly cooled on ice. […]
RT-PCR was carried out on a programmable thermal controller instrument according to standard protocols, where the annealing temperatures were 58° C. for ER-α and 56° C. for PR. […] The PCR products were diluted and used to build a standard curve for the quantitative PCR which was carried out in a Light Cycler instrument (Roche Diagnostics, Mannheim, Germany). […] For each control and test sample, the amount of the constitutively expressed house keeping enzyme glyceraldehyde-3-phosphate dehydrogenase (GAPDH) mRNA was quantified by using appropriate primers and the quantity of ER-α and PR mRNA were normalized to the quantity of GAPDH mRNA in each sample. The relative amounts of ER-α and PR mRNA were expressed as normalized 1,3cPP treatment values divided by the normalized control values.

K562 cells = system: K562 cells
Procedure: It is known from the literature that sodium butyrate derives K562 cells into the erythroid differentiation program (Sutherland et al. 1986). Base on such an observation, the ability of 1,3-cPP alone or in combination with sodium butyrate may trigger the erythroid differentiation program manifested by hemoglobin production.
K562 cells were incubated for 5 days in the presence or absence of 10 or 50 μM 1,3cPP and 1 mM butyric acid as a differentiating agent. Quantitative measurements of hemoglobin production was determined by staining of lysed cells with benzidine-peroxide reagent. The benzidine-peroxide reagent was prepared by dissolving 3,3′,5,5′-tetramethyl benzidine in 90% acetic acid and mixing with an equal volume of freshly prepared 1% hydrogen peroxide. Cell lysate, obtained by hypotonic lysing of 5×10^4 cells in 0.1 ml distilled water, was added to 0.1 ml benzidine reagent and incubated at room temperature for 10 minutes in the dark. Absorbance was measured at 515 nm and was taken as a relative index of the hemoglobin level.

In the case of `O=P1(O)OCCCO1` [1,3-cPP, 1,3-cyclic propanediol phosphate], the “increase in the normalized ER-α mRNA transcription” value (ER-α mRNA in MCF-7 cells; 50 μM, 11th day) is reported as 10 fold, the “increase in the normalized ER-α mRNA transcription” value (ER-α mRNA in MCF-7 cells; 100 μM, day 6, normalized to GAPDH, relative to control) is reported as 6 fold and the “increase in the normalized ER-α mRNA transcription” value (ER-α mRNA in MCF-7 cells; 100 μM, day 14, normalized to GAPDH, relative to control) is reported as 6 fold. The “baseline production of hemoglobin” value (K562 cells; K562 cells, 10 μM 1,3-cPP together with 1 mM sodium butyrate, 5 days) was “more than doubling”, the “baseline production of hemoglobin” value (K562 cells; K562 cells, 50 μM 1,3-cPP together with 1 mM sodium butyrate, 5 days) was “more than tripling” and the hemoglobin production (K562 cells; K562 cells, 1,3-cPP alone, 5 days) was “almost no effect”. For the same molecule, the cell viability (K562 cells; K562 cells, all groups) was “over 85%”, the “interaction with sodium butyrate on hemoglobin production and proliferation” value (K562 cells; K562 cells, combination with sodium butyrate (FIG. 7)) was “synergizes with sodium butyrate” and the total cell number (K562 cells; K562 cells, fifth day, most prominently 50 μM 1,3-cPP together with 1 mM sodium butyrate) was “concurrent decrease”.
